Earlier results in article PMC13112601 (International journal of biological macromolecules, 2026).

Legend:
ERRα = target: T1, ERRα (Homo sapiens, UniProt P11474); conditions: previously reported
T1 construct: Full-length ERRα (A) and ERRγ (B) transfection assay results in HEK293 cells; host or cells: HEK293
T1 sequence (P11474 1-423): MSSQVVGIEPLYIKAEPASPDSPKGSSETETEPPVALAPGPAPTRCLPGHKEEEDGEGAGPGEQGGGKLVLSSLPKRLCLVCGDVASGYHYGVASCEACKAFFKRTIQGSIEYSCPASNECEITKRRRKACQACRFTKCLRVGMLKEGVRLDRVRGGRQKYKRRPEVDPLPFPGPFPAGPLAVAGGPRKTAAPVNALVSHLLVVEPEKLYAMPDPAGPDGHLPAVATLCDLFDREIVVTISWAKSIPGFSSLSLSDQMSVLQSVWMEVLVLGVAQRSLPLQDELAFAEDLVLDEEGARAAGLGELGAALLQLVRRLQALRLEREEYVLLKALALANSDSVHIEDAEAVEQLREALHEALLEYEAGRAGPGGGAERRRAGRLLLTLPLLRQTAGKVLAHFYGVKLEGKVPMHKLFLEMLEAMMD

ERRγ = target: T2, ERRγ (Homo sapiens, UniProt P62508); conditions: previously reported
T2 construct: Full-length ERRα (A) and ERRγ (B) transfection assay results in HEK293 cells; host or cells: HEK293
T2 sequence (P62508 1-458): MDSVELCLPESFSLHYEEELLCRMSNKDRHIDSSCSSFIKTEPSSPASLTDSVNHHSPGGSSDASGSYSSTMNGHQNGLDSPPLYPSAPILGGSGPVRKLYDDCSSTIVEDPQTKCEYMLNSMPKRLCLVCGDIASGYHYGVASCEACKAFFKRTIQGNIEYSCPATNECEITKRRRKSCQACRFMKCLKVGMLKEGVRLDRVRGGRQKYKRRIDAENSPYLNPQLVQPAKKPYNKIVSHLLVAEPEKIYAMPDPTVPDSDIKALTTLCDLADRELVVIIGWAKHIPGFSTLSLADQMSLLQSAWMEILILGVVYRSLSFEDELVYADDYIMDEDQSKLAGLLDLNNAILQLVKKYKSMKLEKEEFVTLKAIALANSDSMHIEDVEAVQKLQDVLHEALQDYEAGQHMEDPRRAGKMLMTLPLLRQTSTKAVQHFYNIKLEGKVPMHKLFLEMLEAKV

Cc1ccc(C(=O)N/N=C/c2ccccc2)cc1 [BE5082, (E)-N′-Benzylidene-4-methylbenzohydrazide]
EC50 (ERRα): 209 nM | EC50 (ERRγ): 194 nM
